Laboratory results: patent US6987114B1, “Antiviral pyrimidinedione derivatives and process for the preparation thereof” (Samjin Pharmaceutical Co., Ltd, priority 1999, dated 2006)
Values after ≈ are worked out from the molar mass of the structure shown. Where two headings read alike, the source gives them in different places.

Assays:
[1] = test system: mock-infected MT-4 cells; assay: Cytotoxicity based on viability of mock-infected host cells (MTT method); type: cell-based; details: mock-infected MT-4 cells, MTT method, 4 or 5 days at 37° C.
Experimental: (§1) MT-4 cells were suspended in culture media at 2.5×10^5 cells/ml and infected with 1000 CCID50 (50% cell culture infective dose) of HIV. Immediately after virus infection, 100 μl of cell suspension was brought into each well of a flat-bottomed microtitray containing various concentrations of the test compounds. After 4 or 5 days incubation at 37° C., efficacy of the compounds was determined by the MTT method. Cytotoxicity of the compounds was assessed in parallel with their antiviral activity, based on viability of mock-infected host cells as determined by the MTT method.

[2] = test system: HIV; assay: microbe, parasite or virus in culture; type: cell-based
Experimental: Anti-HIV activity tests in vitro of the compounds according to the present invention were performed as described in J. Med. Chem, 34, 357, 1991. Inhibition by the compounds of virus-induced cytotoxic effect in MT-4 cells was measured as follows.
as §1

[3] = Human immunodeficiency virus 1, MT4, HIV-infected MT-4 cells, MTT method, 4 or 5 days at 37° C., read-out: ED50 (the source's name)
[4] = Human immunodeficiency virus 1, MT4, read-out: ED50

Row | EC50 [2, 3] [µg/mL] | Compound | CD50 [1] [µg/mL] | melting point [°C] | EC50 [2, 4] [µg/mL]
1 | 0.005 (≈ 0.0125 µM) | Cc1cc(C)cc(C(=O)c2c(C(C)C)c(=O)[nH]c(=O)n2Cc2ccccc2C#N)c1 [Example 42, 1-(2-Cyanobenzyl)-5-isopropyl-6-(3,5-dimethylbenzoyl)-2,4-pyrimidinedione] | >100.00 | 250 to 253 | –
2 | – | CCc1c(Sc2cc(C)cc(C)c2)n(Cc2cccc(C#N)c2)c(=O)[nH]c1=O [Example 43, 1-(3-Cyanobenzyl)-5-ethyl-6-(3,5-dimethylphenyl)thio-2,4-pyrimidinedione] | 1.77 | 179 to 181 | 0.015 (≈ 0.0383 µM)
3 | – | Cc1cc(C)cc(Sc2c(C(C)C)c(=O)[nH]c(=O)n2Cc2cccc(C#N)c2)c1 [Example 44, 1-(3-Cyanobenzyl)-5-isopropyl-6-(3,5-dimethylphenyl)thio-2,4-pyrimidinedione] | 8.88 | 186 to 188 | 0.008 (≈ 0.0197 µM)
4 | – | CCc1c(Oc2cc(C)cc(C)c2)n(Cc2cccc(C#N)c2)c(=O)[nH]c1=O [Example 45, 1-(3-Cyanobenzyl)-5-ethyl-6-(3,5-dimethylphenoxy)-2,4-pyrimidinedione] | >100.00 | 213 to 214 | 0.061 (≈ 0.162 µM)
5 | – | Cc1cc(C)cc(Oc2c(C(C)C)c(=O)[nH]c(=O)n2Cc2cccc(C#N)c2)c1 [Example 46, 1-(3-Cyanobenzyl)-5-isopropyl-6-(3,5-dimethylphenoxy)-2,4-pyrimidinedione] | 9.20 | 160 to 162 | 0.023 (≈ 0.0591 µM)
6 | – | CCc1c(C(=O)c2cc(C)cc(C)c2)n(Cc2cccc(C#N)c2)c(=O)[nH]c1=O [Example 47, 1-(3-Cyanobenzyl)-5-ethyl-6-(3,5-dimethylbenzoyl)-2,4-pyrimidinedione] | 2.53 | 206 to 207 | 0.003 (≈ 0.00774 µM)
7 | – | Cc1cc(C)cc(C(=O)c2c(C(C)C)c(=O)[nH]c(=O)n2Cc2cccc(C#N)c2)c1 [Example 48, 1-(3-Cyanobenzyl)-5-isopropyl-6-(3,5-dimethylbenzoyl)-2,4-pyrimidinedione] | 8.07 | 202 to 204 | 0.003 (≈ 0.00747 µM)
8 | – | CCc1c(Sc2cc(C)cc(C)c2)n(Cc2cc(C)cc(C)c2)c(=O)[nH]c1=O [Example 49, 1-(3,5-Dimethylbenzyl)-5-ethyl-6-(3,5-dimethylphenyl)thio-2,4-pyrimidinedione] | 7.48 | 180 to 182 | 0.014 (≈ 0.0355 µM)
9 | – | Cc1cc(C)cc(Cn2c(Sc3cc(C)cc(C)c3)c(C(C)C)c(=O)[nH]c2=O)c1 [Example 50, 1-(3,5-Dimethylbenzyl)-5-isopropyl-6-(3,5-dimethylphenyl)thio-2,4-pyrimidinedione] | 8.70 | 164 to 166 | 0.015 (≈ 0.0367 µM)
10 | – | CCc1c(Oc2cc(C)cc(C)c2)n(Cc2cc(C)cc(C)c2)c(=O)[nH]c1=O [Example 51, 1-(3,5-Dimethylbenzyl)-5-ethyl-6-(3,5-dimethylphenoxy)-2,4-pyrimidinedione] | 8.01 | 130 to 132 | 0.13 (≈ 0.343 µM)
11 | – | Cc1cc(C)cc(Cn2c(Oc3cc(C)cc(C)c3)c(C(C)C)c(=O)[nH]c2=O)c1 [Example 52, 1-(3,5-Dimethylbenzyl)-5-isopropyl-6-(3,5-dimethyl-phenoxy)-2,4-pyrimidinedione] | 8.20 | 175 to 177 | 0.098 (≈ 0.25 µM)
12 | – | CCc1c(C(=O)c2cc(C)cc(C)c2)n(Cc2cc(C)cc(C)c2)c(=O)[nH]c1=O [Example 53, 1-(3,5-Dimethylbenzyl)-5-ethyl-6-(3,5-dimethylbenzoyl)-2,4-pyrimidinedione] | 2.50 | 188 to 190 | 0.014 (≈ 0.0359 µM)
13 | – | Cc1cc(C)cc(Cn2c(C(=O)c3cc(C)cc(C)c3)c(C(C)C)c(=O)[nH]c2=O)c1 [Example 54, 1-(3,5-Dimethylbenzyl)-5-isopropyl-6-(3,5-dimethylbenzoyl)-2,4-pyrimidinedione] | 7.10 | 228 to 230 | 0.014 (≈ 0.0346 µM)
14 | 0.071 (≈ 0.166 µM) | CCc1c(Sc2cc(C)cc(C)c2)n(Cc2cc(OC)cc(OC)c2)c(=O)[nH]c1=O [Example 55, 1-(3,5-Dimethoxybenzyl)-5-ethyl-6-(3,5-dimethylphenyl)thio-2,4-pyrimidinedione] | 10.8 | 181 to 183 | –
15 | 0.21 (≈ 0.477 µM) | COc1cc(Cn2c(Sc3cc(C)cc(C)c3)c(C(C)C)c(=O)[nH]c2=O)cc(OC)c1 [Example 56, 1-(3,5-Dimethoxybenzyl)-5-isopropyl-6-(3,5-dimethyl-phenyl)thio-2,4-pyrimidinedione] | 11.34 | 157 to 160 | –
16 | 1.37 (≈ 3.34 µM) | CCc1c(Oc2cc(C)cc(C)c2)n(Cc2cc(OC)cc(OC)c2)c(=O)[nH]c1=O [Example 57, 1-(3,5-Dimethoxybenzyl)-5-ethyl-6-(3,5-dimethylphenoxy)-2,4-pyrimidinedione] | 36.80 | 154 to 156 | –
17 | 0.51 (≈ 1.2 µM) | COc1cc(Cn2c(Oc3cc(C)cc(C)c3)c(C(C)C)c(=O)[nH]c2=O)cc(OC)c1 [Example 58, 1-(3,5-Dimethoxybenzyl)-5-isopropyl-6-(3,5-dimethylphenoxy)-2,4-pyrimidinedione] | >100.00 | 162 to 164 | –
18 | 0.31 (≈ 0.734 µM) | CCc1c(C(=O)c2cc(C)cc(C)c2)n(Cc2cc(OC)cc(OC)c2)c(=O)[nH]c1=O [Example 59, 1-(3,5-Dimethoxybenzyl)-5-ethyl-6-(3,5-dimethylbenzoyl)-2,4-pyrimidinedione] | 69.00 | 208 to 210 | –
19 | 0.23 (≈ 0.527 µM) | COc1cc(Cn2c(C(=O)c3cc(C)cc(C)c3)c(C(C)C)c(=O)[nH]c2=O)cc(OC)c1 [Example 60, 1-(3,5-Dimethoxybenzyl)-5-isopropyl-6-(3,5-dimethyl-benzoyl)-2,4-pyrimidinedione] | 12.09 | 220 to 222 | –
20 | > 100 | CCc1c(Sc2cc(C)cc(C)c2)n(Cc2cc(C(F)(F)F)cc(C(F)(F)F)c2)c(=O)[nH]c1=O [Example 61, 1-[3,5-Bis(trifluoromethyl)benzyl]-5-ethyl-6-(3,5-dimethyl-phenyl)thio-2,4-pyrimidinedione] | >100.00 | 212 to 213 | –
21 | > 100 | Cc1cc(C)cc(Sc2c(C(C)C)c(=O)[nH]c(=O)n2Cc2cc(C(F)(F)F)cc(C(F)(F)F)c2)c1 [Example 62, 1-[3,5-Bis(trifluoromethyl)benzyl]-5-isopropyl-6-(3,5-dimethylphenyl)thio-2,4-pyrimidinedione] | >100.00 | 183 to 185 | –
22 | > 100 | CCc1c(Oc2cc(C)cc(C)c2)n(Cc2cc(C(F)(F)F)cc(C(F)(F)F)c2)c(=O)[nH]c1=O [Example 63, 1-[3,5-Bis(Trifluoromethyl)benzyl]-5-ethyl-6-(3,5-dimethyl-phenoxy)-2,4-pyrimidinedione] | >100.00 | 183 to 185 | –
